Data on 9 compounds can be found in PMC6100729, “Penicillium citrinum UFV1 β-glucosidases: purification, characterization, and application for biomass saccharification” (Biotechnology for Biofuels, 2018).

Common to all, as to assay type: biochemical, Penicillium citrinum
Assay [1] concerns T1, PcβGlu1.
T1 construct: native secreted enzyme purified from wheat-bran culture supernatant (ammonium sulfate, phenyl sepharose); 134 kDa SDS-PAGE, 258 kDa gel filtration (abstract 241 kDa), homodimer
As to the kind of experiment: glucose release, glucose oxidase method at […] nm. The note with it: 50 mM sodium acetate pH 5.0, 40 °C.

The subject of assay [2] is T2, PcβGlu2.
T2 construct: 93 kDa SDS-PAGE, 89 kDa gel filtration (abstract 95 kDa), monomer; GH3 only tentative (MS on heterogeneous fraction)
As to the kind of experiment: glucose release, glucose oxidase method at […] nm. The note with it: 50 mM sodium acetate pH 5.0, 40 °C.

For assay [3], the system named is T1, PcβGlu1. As to the kind of experiment: 4-methylumbelliferone fluorescence. The note with it: 50 mM sodium acetate pH 5.0, 40 °C. The source says: 4-methylumbelliferone fluorescence on PcβGlu1
For assay [4], the system named is T2, PcβGlu2. As to the kind of experiment: 4-methylumbelliferone fluorescence. The note with it: 50 mM sodium acetate pH 5.0, 40 °C; substrate-inhibition model. From the text:
4-methylumbelliferone fluorescence on PcβGlu2

Assay [5] addresses T2, PcβGlu2. As to the kind of experiment: pNPβGlu hydrolysis, p-nitrophenol release at […] nm. The note with it: substrate pNPβGlu, 50 mM sodium acetate pH 5.0, 40 °C.
In assay [6] the target is T1, PcβGlu1. As to the kind of experiment: pNPβGlu hydrolysis, p-nitrophenol release at […] nm. The note with it: substrate pNPβGlu, 50 mM sodium acetate pH 5.0, 40 °C.
The subject of assay [7] is T1, PcβGlu1. As to the kind of experiment: p-nitrophenol release at […] nm. The note with it: 50 mM sodium acetate pH 5.0, 40 °C.
The test system of assay [8] is T2, PcβGlu2. As to the kind of experiment: p-nitrophenol release at […] nm. The note with it: 50 mM sodium acetate pH 5.0, 40 °C; substrate-inhibition model.
The mark [9] stands for this setting: mixed-type noncompetitive, free-enzyme constant, read-out: KIE.

Read-outs that look alike come from different tables or passages of the source.

Take `OC[C@H]1O[C@@H](O[C@H]2[C@H](O)[C@@H](O)[C@H](O[C@H]3[C@H](O)[C@@H](O)[C@H](O[C@H]4[C@H](O)[C@@H](O)[C@H](O[C@H]5[C@H](O)[C@@H](O)C(O)O[C@@H]5CO)O[C@@H]4CO)O[C@@H]3CO)O[C@@H]2CO)[C@H](O)[C@@H](O)[C@@H]1O` (some centres unmarked) [Cellopentaose]: the Km (commonly the substrate concentration at which the rate is half of its maximum) in assay [1] is 250 ± 20 µM; in assay [2] (substrate-inhibition model), 70 ± 10 µM.
For `OC[C@H]1O[C@@H](O[C@H]2[C@H](O)[C@@H](O)[C@H](O[C@H]3[C@H](O)[C@@H](O)[C@H](O[C@H]4[C@H](O)[C@@H](O)C(O)O[C@@H]4CO)O[C@@H]3CO)O[C@@H]2CO)[C@H](O)[C@@H](O)[C@@H]1O` (some centres unmarked) [Cellotetraose], in that order: 420 ± 50 µM and 280 ± 70 µM.
For the compound `OC[C@H]1O[C@@H](OC[C@H]2OC(O)[C@H](O)[C@@H](O)[C@@H]2O)[C@H](O)[C@@H](O)[C@@H]1O` (some centres unmarked) [Gentiobiose], the Km in assay [1] was determined as 380 ± 40 µM; in assay [2] (Michaelis-Menten), 620 ± 70 µM.
Take `OC[C@H]1O[C@@H](O[C@H]2[C@H](O)[C@@H](CO)OC(O)[C@@H]2O)[C@H](O)[C@@H](O)[C@@H]1O` (some centres unmarked) [Laminaribiose]: the Km in assay [1] is 330 ± 40 µM; in assay [2] (substrate-inhibition model), 420 ± 30 µM.
On to `Cc1cc(=O)oc2cc(O[C@@H]3O[C@H](CO)[C@@H](O)[C@H](O)[C@H]3O)ccc12` [MUβGlu], for which the Km worked out at 240 ± 10 µM in assay [3] and 14 ± 2 µM in assay [4].
With `CCCCCCCCO[C@@H]1O[C@H](CO)[C@@H](O)[C@H](O)[C@H]1O` [Octyl-β-glucopyranoside], the figures for the Km in assay [1] and in assay [2] (substrate-inhibition model) were 540 ± 30 µM and 190 ± 30 µM, respectively.
Turning to `OC[C@H]1O[C@@H](O[C@H]2[C@H](O)[C@@H](O)C(O)O[C@@H]2CO)[C@H](O)[C@@H](O)[C@@H]1O` (some centres unmarked) [cellobiose], the Km came out at 1700 ± 100 µM in assay [1] and 640 ± 60 µM in assay [2] (Michaelis-Menten). In addition, the Ki is 3.74 ± 0.07 mM in assay [5] (setting [9]) and 10.7 ± 0.1 mM in assay [6] (setting [9]).
`OC[C@H]1OC(O)[C@H](O)[C@@H](O)[C@@H]1O` (some centres unmarked) [glucose]: the Ki in assay [5] (competitive, read-out: Ki) is 0.88 ± 0.08 mM; in assay [6] (competitive, read-out: Ki), 1.89 ± 0.08 mM.
For `O=[N+]([O-])c1ccc(O[C@@H]2O[C@H](CO)[C@@H](O)[C@H](O)[C@H]2O)cc1` [pNPβGlu], the values for the Km in assay [7] and in assay [8] were 280 ± 10 µM and 72 ± 7 µM, respectively.
